Experimental data as given in patent publication US20220362267A1, “CAPACITATIVE CALCIUM ENTRY INHIBITORS” (UNIVERSITÉ PARIS-SACLAY, priority 2019, published 2022).

Assays:
SOCE of Jurkat T cells = experiment: SOCE inhibition in thapsigargin-treated Jurkat cells (Indo-1 cytosolic calcium); type: cell-based; conditions: for Ki: SOCE, compound added 30 s before reintroduction of calcium; for concentration below which only SOCE is inhibited (no effect on SERCA and IP3R): selectivity versus SERCA and IP3R
Description: The Jurkat T lymphocyte line was mainly used for characterizing the effect of the molecules on SOCE. The Indo-1 ratiometric probe was used to visualize cytosolic calcium variations. For this, the cells in culture were centrifuged and then resuspended and incubated in PBS (Phosphate Buffered Saline) medium supplemented with 1 mg/ml of albumin and 4 μM of Indo-1-AM for 45 mim at ambient temperature and in the dark.
The SOCE phenomenon was evaluated conventionally. Jurkat cells were placed in calcium-free HBS medium and stimulated with 1 μM of thapsigargin (TG, arrow in FIG. 2A) for 600 s in order to allow calcium release from the ER and SOCC channel opening(=CRAC). The addition of 1 mM of CaCl2 to the medium allows massive calcium ion entry through the SOCCs and an increase in the concentration of cytosolic calcium ([Ca^2+]cyt).
The dose-response curves were established after addition of 2-APB or of an analog thereof 30 seconds before the reintroduction of calcium.

Orai1-SOCE in leukocytes = conditions: cited from earlier work
IP3R = target: T1, IP3R (Mus musculus, UniProt P11881); experiment: IP3-dependent 45Ca2+ release in permeabilized L15 cells; type: biochemical
T1 construct: expressed in transfected cells; host or cells: L15 cell line, permeabilized with saponin
T1 sequence (P11881 whole entry): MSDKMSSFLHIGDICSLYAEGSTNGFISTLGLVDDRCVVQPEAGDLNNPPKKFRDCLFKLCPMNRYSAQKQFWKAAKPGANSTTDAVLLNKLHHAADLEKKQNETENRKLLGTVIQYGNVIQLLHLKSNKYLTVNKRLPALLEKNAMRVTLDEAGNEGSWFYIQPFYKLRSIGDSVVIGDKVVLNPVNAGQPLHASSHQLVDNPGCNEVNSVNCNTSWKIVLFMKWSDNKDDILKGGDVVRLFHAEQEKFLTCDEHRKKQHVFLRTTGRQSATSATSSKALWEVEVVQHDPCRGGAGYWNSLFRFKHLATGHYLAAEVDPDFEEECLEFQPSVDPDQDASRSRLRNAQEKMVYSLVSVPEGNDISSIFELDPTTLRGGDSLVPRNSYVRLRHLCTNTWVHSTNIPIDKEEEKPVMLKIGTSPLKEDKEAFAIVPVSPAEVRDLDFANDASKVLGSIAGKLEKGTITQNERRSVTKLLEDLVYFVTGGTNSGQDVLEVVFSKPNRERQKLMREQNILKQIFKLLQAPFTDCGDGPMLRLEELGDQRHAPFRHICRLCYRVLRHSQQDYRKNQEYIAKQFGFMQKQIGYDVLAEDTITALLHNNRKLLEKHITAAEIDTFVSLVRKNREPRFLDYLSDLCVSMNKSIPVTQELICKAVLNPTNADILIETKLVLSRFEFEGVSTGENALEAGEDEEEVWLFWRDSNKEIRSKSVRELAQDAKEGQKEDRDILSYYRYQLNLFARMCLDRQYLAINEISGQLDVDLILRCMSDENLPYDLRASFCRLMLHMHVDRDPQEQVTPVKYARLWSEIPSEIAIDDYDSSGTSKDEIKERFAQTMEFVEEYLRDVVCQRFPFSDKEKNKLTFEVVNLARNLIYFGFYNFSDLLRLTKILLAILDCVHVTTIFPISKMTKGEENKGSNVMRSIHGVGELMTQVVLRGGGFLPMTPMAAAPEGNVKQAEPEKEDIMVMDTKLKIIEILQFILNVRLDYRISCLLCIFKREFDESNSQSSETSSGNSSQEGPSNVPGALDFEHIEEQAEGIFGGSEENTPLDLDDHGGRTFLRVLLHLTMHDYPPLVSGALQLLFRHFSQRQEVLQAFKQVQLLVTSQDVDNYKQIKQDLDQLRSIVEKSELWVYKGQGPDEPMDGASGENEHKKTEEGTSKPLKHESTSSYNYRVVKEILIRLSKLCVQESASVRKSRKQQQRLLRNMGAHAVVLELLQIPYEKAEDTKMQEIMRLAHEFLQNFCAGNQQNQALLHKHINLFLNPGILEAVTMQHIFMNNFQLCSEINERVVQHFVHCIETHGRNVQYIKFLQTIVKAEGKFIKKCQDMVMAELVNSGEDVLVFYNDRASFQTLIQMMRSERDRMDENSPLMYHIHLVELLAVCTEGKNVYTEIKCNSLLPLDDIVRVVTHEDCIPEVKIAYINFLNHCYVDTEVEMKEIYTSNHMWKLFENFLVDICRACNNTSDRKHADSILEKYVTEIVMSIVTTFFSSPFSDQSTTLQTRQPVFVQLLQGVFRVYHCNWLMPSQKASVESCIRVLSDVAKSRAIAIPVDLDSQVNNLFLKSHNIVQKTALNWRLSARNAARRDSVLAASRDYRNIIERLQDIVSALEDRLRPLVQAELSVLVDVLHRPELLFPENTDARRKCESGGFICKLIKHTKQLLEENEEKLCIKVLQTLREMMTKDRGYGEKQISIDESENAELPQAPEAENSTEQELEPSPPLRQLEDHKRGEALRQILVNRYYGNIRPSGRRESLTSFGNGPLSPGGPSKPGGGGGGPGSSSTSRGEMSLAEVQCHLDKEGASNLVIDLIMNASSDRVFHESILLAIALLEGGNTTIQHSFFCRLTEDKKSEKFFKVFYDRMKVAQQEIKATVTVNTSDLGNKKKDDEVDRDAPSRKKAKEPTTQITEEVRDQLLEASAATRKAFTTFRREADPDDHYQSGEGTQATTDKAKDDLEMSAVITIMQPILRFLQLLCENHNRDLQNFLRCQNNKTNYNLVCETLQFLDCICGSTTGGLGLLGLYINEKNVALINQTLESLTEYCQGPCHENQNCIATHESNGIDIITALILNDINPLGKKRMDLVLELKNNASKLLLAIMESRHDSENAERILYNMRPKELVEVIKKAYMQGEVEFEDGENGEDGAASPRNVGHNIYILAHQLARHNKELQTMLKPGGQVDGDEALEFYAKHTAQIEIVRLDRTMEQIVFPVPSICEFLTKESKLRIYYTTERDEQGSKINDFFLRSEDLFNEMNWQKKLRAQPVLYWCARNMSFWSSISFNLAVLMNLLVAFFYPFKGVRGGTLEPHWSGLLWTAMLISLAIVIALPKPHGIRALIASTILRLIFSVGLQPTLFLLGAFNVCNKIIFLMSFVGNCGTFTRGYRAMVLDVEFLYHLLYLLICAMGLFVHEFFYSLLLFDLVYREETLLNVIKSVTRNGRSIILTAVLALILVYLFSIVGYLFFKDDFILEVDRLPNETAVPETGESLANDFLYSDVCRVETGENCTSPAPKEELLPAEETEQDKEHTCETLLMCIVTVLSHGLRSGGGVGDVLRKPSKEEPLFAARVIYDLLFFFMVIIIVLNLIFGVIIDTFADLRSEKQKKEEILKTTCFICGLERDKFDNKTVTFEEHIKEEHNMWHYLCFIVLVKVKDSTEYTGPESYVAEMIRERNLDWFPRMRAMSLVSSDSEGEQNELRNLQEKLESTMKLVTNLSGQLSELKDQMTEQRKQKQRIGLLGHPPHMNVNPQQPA
Description: (§1) To test the selectivity of certain molecules on SOCE compared to IP3R and SERCA, the L15 line stably expressing type 1 IP3R was used. Briefly, the cells were permeabilized with saponin and incubated in the presence of ^45Ca^2+ in a medium containing ATP allowing SERCA activity and Ca' ion entry into the ER. The addition of TG makes it possible to induce release from the ER and therefore to measure the amount of Ca^2+ ions that have left the ER, which is itself directly linked to the SERCA activity. The addition of IP3 allows direct measurement of the amount of Ca' ions leaving the ER by IP3R opening.
(§2) The ^45Ca^2+ loading and IP3-dependent release measurements were carried out on permeabilized cells under one-way conditions.

SERCA = experiment: 45Ca2+ loading (SERCA activity) in permeabilized L15 cells; type: biochemical; conditions: for Ki: permeabilized cells
Description: as §1, §2

[1] = system: Mn2+ influx via the SOCCs; experiment: Mn2+ quenching of indo-1 in TG-treated Jurkat cells; type: cell-based; conditions: 1 μM
Description: In order to determine whether compound P11 has an action on SOCE and not on calcium efflux mechanisms, a quenching experiment with Mn^2+ was carried out by means of the indo-1 molecule. The Mn^2+ ions enter the cells via the SOCCs, but cannot be pumped into the extracellular membrane by the plasma membrane calcium-dependent ATPases (plasma membrane Ca^2+ ATPases, or PMCA) or the sodium/calcium exchanger (Na^+/Ca^2+ exchanger, or NCX) or sent back into the lumen of the ER by the sarcoplasmic-endoplasmic reticulum Ca^2+ ATPases (or SERCAs). Once in the cell, Mn^2+ binds to indo-1 and quenches its fluorescence measured at 430 nm. An increase in the amplitude of the Mn^2+ influx is therefore associated with an increase in the indo-1 quenching rate, and vice versa.
After 10 minutes of treatment with TG in order to open the SOCCs, 100 μM of MnCl2 were added. A degree of quenching of −0.89±0.05% Fo/s was observed (FIG. 3A). In the presence of increasing concentrations of P11 added 30 seconds before the addition of Mn^2+ ions, the degree of quenching decreased and reached a blocking of approximately 90% at 1 μM (−0.09±0.01, FIG. 3A).

[2] = system: SOCE in DG75 cells (B lymphocytes); experiment: SOCE inhibition in DG75 cells; type: cell-based
Description: (§3) The Jurkat T lymphocyte line was mainly used for characterizing the effect of the molecules on SOCE. The Indo-1 ratiometric probe was used to visualize cytosolic calcium variations. For this, the cells in culture were centrifuged and then resuspended and incubated in PBS (Phosphate Buffered Saline) medium supplemented with 1 mg/ml of albumin and 4 μM of Indo-1-AM for 45 mim at ambient temperature and in the dark. The cells were then again centrifuged and resuspended in the HBS (Hepes-Buffered Saline) recording medium having the composition (in mM): 135 mM NaCl, 5.9 mM KCl, 1.2 mM MgCl2, 11.6 mM Hepes, 11.5 mM glucose, pH adjusted to 7.3 with NaOH. 0.5 to 1 million cells are then placed in the cuvette of a Varian Cary Eclipse spectrofluorimeter and the Indo-1 probe is excited at 360 nm, with emission of fluorescence at 405 and 480 nm. The ratio of fluorescence at 405 and 480 nm is directly proportional to the [Ca^2+]cyt.
(§4) The lines of monocyte origin U937, B lymphocyte origin (DG75) and breast cancer origin (MDA-MB231) were also used with the same protocol.

[3] = system: SOCE in U937 cells (monocytes); experiment: SOCE inhibition in U937 cells; type: cell-based; conditions: FIG. 3B
Description: as §3, §4

[4] = system: SOCE in MDA-MB231 cells (hormone-independent breast cancer cells); experiment: SOCE inhibition in MDA-MB231 cells; type: cell-based; conditions: FIG. 3B
Description: as §3, §4

[5] = system: PHA-stimulated Jurkat cells; experiment: IL-2 synthesis by PHA-stimulated Jurkat cells (Elisa); type: cell-based
Description: In order to measure the interleukin-2 (IL-2) synthesis in 24 h after stimulation with 10 μg/ml of phytohemagglutinin (PHA) in the presence or absence of certain molecules, the Jurkat cells are centrifuged and the supernatant containing the IL-2 is collected. The 11-2 concentration is measured by Elisa (R&D systems kit).
The concentration of neosynthesized IL-2 was measured in the culture medium of phytohemagglutinin (PHA)-stimulated Jurkat cells after 24 h, in the presence of increasing concentrations of compound P11. […] Conversely, stimulation with PHA allows the detection of approximately 100 pg/ml of IL-2 (103 ±4 pg/ml, FIG. 5A). The addition of increasing concentrations of P11 at the same time as the stimulation by PHA leads to a gradual decrease in IL-2 synthesis to 26±6 pg/ml for 1 μM of P11 (-74%, FIG. 5B).

Jurkat cells = experiment: Cell death of Jurkat cells; type: cell-based
[6] = system: caspase-3 activity of Jurkat cells; experiment: Caspase-3 activity in Jurkat cells (Ac-DEVD-AFC substrate); type: cell-based
Description: The caspase-3 activity is measured with a fluorescent kit using the Ac-DEVD-AFC substrate. The Jurkat cells are incubated for 24 h with PHA in the presence or absence of certain molecules. The cells are then lyzed with RIPA medium, and the amounts of proteins are then measured with a commercial kit (Biorad). The cell lysates are then diluted in the following reaction medium: 200 mM Hepes, pH 7.4, 1 mM EDTA, 20% sucrose and 20 mM dithiothreitol, then incubated with 20 μM of the fluorogenic substrate for 45 min […] at 37° C. The appearance of the fluorescent AFC product is measured by spectrofluorimetry (excitation at 405 nm, emission at 505 nm).
(§5) The caspase-3 activity was then evaluated by means of an Ac-DEVD-AFC fluorogenic substrate, and apoptosis was evaluated by means of a TUNEL assay.

[7] = system: PHA-stimulated Jurkat cells; experiment: TUNEL assay of DNA fragmentation in PHA-stimulated Jurkat cells; type: cell-based; conditions: concentrations greater than 10 nM
Description: The Roche TUNEL kit was used to observe the nuclear DNA fragmentation and therefore cell apoptosis.
as §5

[8] = PHA, increasing amounts of P11, FIG. 5C

NCCOB(c1ccccc1)c1ccccc1 [Compound 2-APB, 2-Aminoethoxydiphenyl borate, reference compound]
effect on calcium entry at 5 μM (SOCE of Jurkat T cells; Jurkat cells, 5 μM, FIG. 2A): high potentiation of calcium entry
effect on calcium entry at 50 μM (SOCE of Jurkat T cells; Jurkat cells, 50 μM, FIG. 2A): virtually total inhibition
concentration at which Orai1-SOCE is inhibited (Orai1-SOCE in leukocytes): greater than 30 μM

COc1ccc(B(OCCN)c2ccc(OC)cc2)cc1 [Compound P2]
Ki (SOCE of Jurkat T cells; Jurkat cells): 3.5 ± 0.65 µM

Cc1ccc(B(OCCN)c2ccc(C)cc2)cc1 [Compound P3]
Ki (SOCE of Jurkat T cells; Jurkat cells): 3.5 ± 0.6 µM

COc1cccc(B(OCCN)c2cccc(OC)c2)c1 [Compound P4]
maximum inhibition of SOCE (SOCE of Jurkat T cells; Jurkat cells): 80%
Ki (SOCE of Jurkat T cells; Jurkat cells): 75 ± 21 µM

Cc1cccc(B(OCCN)c2cccc(C)c2)c1 [Compound P5]
Ki (SOCE of Jurkat T cells; Jurkat cells): 2.1 ± 0.6 µM

Cc1ccc(B(OCCN)c2ccc(C)c(C)c2)cc1C [Compound P7]
Ki (SOCE of Jurkat T cells; Jurkat cells): 0.751 ± 0.097 µM

CC(C)(C)c1ccc(B(OCCN)c2ccc(C(C)(C)C)cc2)cc1 [Compound P8]
Ki (SOCE of Jurkat T cells; Jurkat cells): 0.35 ± 0.04 µM

CC(C)(C)c1ccc(B(OCCN)c2ccc(C(C)(C)C)cc2)cc1 [Compound P9]
Ki (SOCE of Jurkat T cells; Jurkat cells): 0.641 ± 0.103 µM
concentration below which only SOCE is inhibited (no effect on SERCA and IP3R) (SOCE of Jurkat T cells): Below 3 μM
inhibition of IP3R activity (in words) (IP3R; FIG. 4): did not significantly inhibit
Ki (SERCA): 6 ± 0.3 µM

NCCOB(c1ccc(-c2ccccc2)cc1)c1ccc(-c2ccccc2)cc1 [Compound P11, 2-(dibiphenyl-4-ylboryloxy)ethamine]
Ki (SOCE of Jurkat T cells; Jurkat cells): 0.075 ± 0.021 µM
concentration below which only SOCE is inhibited (no effect on SERCA and IP3R) (SOCE of Jurkat T cells): less than 1 μM
blocking of Mn2+ quenching [1]: approximately 90%
degree of indo-1 quenching by Mn2+ ([1]; added 30 s before 100 μM MnCl2, after 10 min TG): −0.09±0.01 % Fo/s
Ki ([2]; DG75 cells (B lymphocytes), FIG. 3B): 0.032 ± 0.002 µM
concentration at which total inhibition of SOCE is achieved ([2]; FIG. 3B (other cell types: DG75, U937, MDA-MB231)): 100 nM
Ki [3]: 0.04 ± 0.005 µM
Ki [4]: 0.05 ± 0.005 µM
inhibition at 100 µM (IP3R; 100 μM): 29 ± 9%
ratio Ki SERCA versus Ki SOCE (SERCA; SERCA 7.4 μM vs SOCE 75 nM): 100 times
inhibition of SERCA (SERCA; concentration greater than 30 μM): 89%
Ki (SERCA): 7.4 µM
IL-2 concentration in culture medium ([5]; 1 μM with 10 μg/ml PHA, 24 h): 26 ± 6 pg/mL
change in IL-2 synthesis ([5]; 1 μM with PHA, 24 h): -74%
IL-2 synthesized by the remaining living cells [5, 8]: 39.2 ± 8.6 pg/mL
decrease of IL-2 synthesis capacity of remaining living cells [5, 8]: approximately 63%
percentage of dead cells (Jurkat cells; 1 μM combined with PHA): 33.2±1.3%
toxic effect on the cells, compound alone (Jurkat cells; without PHA): did not exhibit any toxic effect
caspase-3 activity ([6]; 1 μM with PHA, 24 h): 3332±113 AU
increase of caspase-3 activity (factor) ([6]; with PHA, from 10 nM, maximum effect): 3
caspase-3 activity, compound alone ([6]; without PHA, up to 1 μM): does not induce an increase in caspase-3 activity
cells containing fragmented DNA [7]: 17.9±1.2%
fold increase in number of cells containing fragmented DNA [7]: 4.5 fold

NCCOB(c1ccc(Cl)cc1)c1ccc(Cl)cc1 [Compound P13]
Ki (SOCE of Jurkat T cells; Jurkat cells): 1.84 ± 0.1 µM

NCCOB(c1ccc(F)cc1)c1ccc(F)cc1 [Compound P14]
Ki (SOCE of Jurkat T cells; Jurkat cells): 5.4 ± 0.3 µM

Cc1ccc(B(OCCN)c2ccc(C)c(Cl)c2)cc1Cl [Compound P15]
Ki (SOCE of Jurkat T cells; Jurkat cells): 0.294 ± 0.074 µM
